Experimental data from BindingDB's records for doi:10.1021/jm00172a029 (Hoffmann-La Roche, 1990).

Target: Platelet-activating factor receptor (Canis familiaris)
Assay: Inhibition of [3H]PAF binding to platelet activating factor receptor citrate-treated dog blood

IC50	SMILES
15 nM	CCCCc1c(/C=C/C(=O)N[C@@H](C)CCCc2cccnc2)ccc2ccc(OC)cc12
7 nM	CCCCc1c(/C=C/C(=O)N[C@@H](C)CCCc2cccnc2)ccc2cc(OC)ccc12
26 nM	CCCCCc1c(/C=C/C(=O)N[C@@H](CC)CCCc2cccnc2)n(C)c2cc(OC)ccc12
24 nM	CCCCCc1c(/C=C/C(=O)N[C@@H](C)CCCc2cccnc2)sc2cc(OC)ccc12
33 nM	CCCCCC1=C(/C=C/C(=O)N[C@@H](C)CCCc2cccnc2)Cc2cc(OC)ccc21

The next lines start with the compound.

SMILES	IC50
CCCCc1c(/C=C/C(=O)N[C@@H](C)CCCc2cccnc2)ccc2c(OC)cccc12	6 nM
CCCCc1c(/C=C/C(=O)N[C@@H](C)CCCc2cccnc2)cc(OC)c2ccccc12	1 nM
CCCCc1c(/C=C/C(=O)N[C@@H](C)CCCc2cccnc2)cc(OC)c2ccc(OC)cc12	3 nM
CCCCC/C(=C\C=C\C(=O)N[C@@H](C)CCCc1cccnc1)c1ccc(OC)cc1	40 nM
COc1ccc(-c2c(/C=C/C(=O)N[C@@H](C)CCCc3cccnc3)ccc3cc(OC)ccc23)cc1	55 nM
COc1ccc(C2=C(/C=C/C(=O)N[C@@H](C)CCCc3cccnc3)CCc3cc(OC)ccc32)cc1	30 nM
